Test results: patent publication US9434711B2 (Janssen Pharmaceutica, NV, priority 2007, dated 2016)
“And” between values parts separate entries of the source, which are not always exact repeats. Equal values may be shown once. Read-outs that look alike come from different tables or passages of the source.

Key:
Male Sprague Dawley rats [1] = experiment: Chronic Constriction Injury (CCI)-Induced Model of Neuropathic Pain, Acetone-Induced Hypersensitivity; assay type: in vivo, rat; settings: Rattus norvegicus, po, Na salt form; for inhibition in vivo at 3 mg/kg: 3 mg/kg p.o.; for inhibition in vivo at 10 mg/kg: 10 mg/kg p.o.; for inhibition in vivo at 17.8 mg/kg: 17.8 mg/kg p.o.; for inhibition in vivo at 30 mg/kg: 30 mg/kg p.o.; for inhibition in vivo at 56 mg/kg: 56 mg/kg p.o.
Male Sprague Dawley rats [2] = experiment: Inhibition of Icilin-Induced "Wet-Dog" Shakes in Rats; assay type: in vivo, rat; settings: Rattus norvegicus, po, HPbCD, Na salt form
Experimental: Male Sprague Dawley rats (220-450 g, Charles River Labs, n=6-9/treatment) were used to evaluate the ability of selected compounds of the formula (I) to block icilin-induced “wet-dog” shakes (WDS). Compounds of the formula (I) were administered in an appropriate vehicle, such as hydroxypropyl-β-cyclodextrin (HPβCD), methocellulose, 10% Solutol, or H2O, or the like, by the appropriate route, i.p. or p.o., 30-120 minutes before icilin. Icilin was administered in PEG-400 or 10% solutol/H2O, at 1.0 or 3.0 mg/kg, i.p. and spontaneous “wet-dog” shakes were counted 10-20 minutes post-icilin. Results are presented as a percent inhibition of shakes, which was calculated as [1-(test compound WDS count/vehicle WDS count)]×100.

Sprague-Dawley rats = experiment: CFA-Induced Paw Radiant Heat Hypersensitivity; assay type: in vivo, rat; settings: HPbCD, Na salt form
Experimental: Intraplantar injection of complete Freund's adjuvant (CFA) in rodents results in a long-lasting inflammatory reaction, characterized by a pronounced hypersensitivity to both thermal and mechanical stimuli. This hypersensitivity peaks between 24-72 hours following injection and can last for several weeks. To assess whether test compounds of the formula (I) reverse established hypersensitivity, a 100 μL intraplantar injection of CFA (suspended in a 1:1 emulsion of saline and heat-killed Mycobacterium tuberculosis in mineral oil) can be injected into a single hind paw of Sprague-Dawley rats (typically males ranging from 150-350 g). This paradigm also may be conducted with a multiple dosing or a prophylactic dosing regime designed to alter the course of hyperalgesia development. This test predicts the analgesic, anti-allodynic and antihyperalgesic effect of numerous effective clinical agents, including acetaminophen, NSAIDS such as aspirin and ibuprofen, and opioids, such as morphine.
Each rat is placed in a test chamber on a warm glass surface and allowed to acclimate for approximately 10 minutes. A radiant thermal stimulus (beam of light) is then focused through the glass onto the plantar surface of each hind paw in turn. The thermal stimulus is automatically shut off by a photoelectric relay when the paw is moved or when the cut-off time is reached (20 seconds for radiant heat at […]). An initial (baseline) response latency to the thermal stimulus is recorded for each animal prior to the injection of CFA. Twenty-four hours following intraplantar CFA injection, the response latency of the animal to the thermal stimulus is then re-evaluated and compared to the animal's baseline response time. […] Immediately following the post-CFA latency assessment, test compound or vehicle (usually Solutol, hydroxypropyl methylcellulose, hydroxypropyl beta-cyclodextrin or PEG-400) is administered i.p. or p.o. to rats. Post-compound treatment withdrawal latencies are assessed at fixed time intervals, typically 30, 60 and 120 minutes. The percent reversal (% R) of hypersensitivity is calculated according to the following formula: % Reversal=(Treatment Response-CFA Response)/(Baseline Response-CFA Response)×100.

rat TRPM8 = rat TRPM8 (Rattus norvegicus (Rat), UniProt Q8R455); experiment: In Vitro Rat TRPM8 Functional Assay (Ca2+ fluorescence, icilin EC80); assay type: cell-based; settings: read-out: rTRPM8 IC50
Experimental: HEK293 cells are routinely grown as monolayer in Dulbecco's minimum essential medium supplemented with 10% FBS, 1 mM L-glutamine, 100 units/mL penicillin and 100 ug/mL streptomycin. Cells are maintained in 5% CO2 at 37° C.
For functional expression of TRPM8, the full-length cDNA encoding human and rat TRPM8 are subcloned into pCI-NEO mammalian expression vectors. The expression constructs are transiently transfected into HEK293 cells according to the FuGENE 6 Transfection Reagent® (ROCHE) instructions. Within twenty-four hours, transiently transfected cells are harvested and either seeded directly into assay plate or cryopreserved for future usage. […]
Maximal fluorescence intensity (FI) achieved upon addition of icilin is exported from the FDSS and further analyzed using GraphPad Prism 3.02 (Graph Pad Software Inc., CA, U.S.A.) where data is normalized to percent of maximal response. The dose response curves from the average of quadruplicate wells for each data point are analyzed by using nonlinear regression of either sigmoidal dose response or sigmoidal dose response (variable slope). Finally, the IC50 values are calculated with the best-fit dose curve determined by Prism.

[3] = 4 h, vehicle HPbCD, Water, pretreatment 4 hr, read-out: Percent Inhibition
[4] = 4 h, HPbCD, pretreatment 4 hr, read-out: Percent Inhibition
[5] = 4 h, Water, pretreatment 4 hr, read-out: Percent Inhibition

Chain of rat TRPM8 (Q8R455 whole entry): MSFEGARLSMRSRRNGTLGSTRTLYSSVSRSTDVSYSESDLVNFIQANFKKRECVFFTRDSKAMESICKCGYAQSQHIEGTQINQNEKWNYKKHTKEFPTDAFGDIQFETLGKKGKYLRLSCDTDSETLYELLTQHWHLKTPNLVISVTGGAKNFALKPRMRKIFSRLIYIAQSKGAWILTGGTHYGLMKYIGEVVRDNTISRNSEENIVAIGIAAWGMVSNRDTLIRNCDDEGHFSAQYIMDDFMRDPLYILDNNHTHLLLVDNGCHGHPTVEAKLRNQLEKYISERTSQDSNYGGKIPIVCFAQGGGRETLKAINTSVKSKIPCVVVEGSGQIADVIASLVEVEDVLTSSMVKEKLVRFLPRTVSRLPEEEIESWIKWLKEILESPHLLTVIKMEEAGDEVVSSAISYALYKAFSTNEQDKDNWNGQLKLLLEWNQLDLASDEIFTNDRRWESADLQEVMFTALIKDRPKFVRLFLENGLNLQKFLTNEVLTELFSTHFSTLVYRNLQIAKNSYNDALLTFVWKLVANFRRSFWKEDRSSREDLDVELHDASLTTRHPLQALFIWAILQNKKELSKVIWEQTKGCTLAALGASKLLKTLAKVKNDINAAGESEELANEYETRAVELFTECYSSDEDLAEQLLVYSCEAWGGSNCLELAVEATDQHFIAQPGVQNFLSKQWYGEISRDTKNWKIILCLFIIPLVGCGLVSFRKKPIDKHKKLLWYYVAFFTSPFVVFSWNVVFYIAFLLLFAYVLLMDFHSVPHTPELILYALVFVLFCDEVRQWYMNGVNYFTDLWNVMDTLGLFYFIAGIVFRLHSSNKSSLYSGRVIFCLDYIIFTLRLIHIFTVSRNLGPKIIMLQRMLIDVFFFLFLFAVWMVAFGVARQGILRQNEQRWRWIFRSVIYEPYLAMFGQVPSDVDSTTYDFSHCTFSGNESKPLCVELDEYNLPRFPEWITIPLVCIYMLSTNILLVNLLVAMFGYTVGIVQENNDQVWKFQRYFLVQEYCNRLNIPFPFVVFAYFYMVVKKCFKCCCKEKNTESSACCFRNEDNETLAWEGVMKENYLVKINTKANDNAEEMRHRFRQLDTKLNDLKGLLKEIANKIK

## Cc1c(N(Cc2ccc(F)c(C(F)(F)F)c2)S(=O)(=O)c2ccc(C(=O)O)cc2)sc2ccccc12 [Compound 306, N-(3-Methyl-benzo[b]thiophen-2-yl)-N-(4-fluoro-3-trifluoromethyl-benzyl)-4-carboxy-benzenesulfonamide]
Male Sprague Dawley rats [1]; [3]
  inhibition in vivo at 3 mg/kg: 20%
  inhibition in vivo at 10 mg/kg: 38%
  inhibition in vivo at 17.8 mg/kg: 57%
  inhibition in vivo at 30 mg/kg: 68%
  inhibition in vivo at 56 mg/kg: 77%
Male Sprague Dawley rats [1]; 4 h, 100 mg/kg p.o., vehicle HPbCD, Water, pretreatment 4 hr, read-out: Percent Inhibition
  inhibition in vivo at 100 mg/kg: 77%
Male Sprague Dawley rats [1]; 6 h, HPbCD, pretreatment 6 hr, read-out: Percent Inhibition
  inhibition in vivo at 30 mg/kg: 69%
Male Sprague Dawley rats [1]; vehicle HPbCD, Water, pretreatment 4 hr
  ED50: 15 mg/kg
Male Sprague Dawley rats [2]; 1 h, 60 min pre-icilin
  ED50: 2.5 mg/kg
Sprague-Dawley rats; dose 3 p.o., treatment time 100 min
  Percent Reversal: 31%
Sprague-Dawley rats; dose 5.6 p.o., treatment time 100 min
  Percent Reversal: 76%
Sprague-Dawley rats; dose 10 p.o., treatment time 100 min
  Percent Reversal: 91% and 93%
Sprague-Dawley rats; dose 30 p.o., treatment time 100 min
  Percent Reversal: 59%
Rat TRPM8; Freshly transfected cells
  IC50: 5 nM

## Cc1c(N(Cc2ccc(OC(F)(F)F)cc2)S(=O)(=O)c2ccc(C(=O)O)cc2)sc2ccccc12 [Compound 496, N-(3-Methyl-benzo[b]thiophen-2-yl)-N-(4-trifluoromethoxy-benzyl)-4-carboxy-benzenesulfonamide]
Male Sprague Dawley rats [1]; 2 h, Water, pretreatment 2 hr, read-out: Percent Inhibition
  inhibition in vivo at 30 mg/kg: 74%
Male Sprague Dawley rats [1]; 4 h, 0.3 mg/kg p.o., HPbCD, pretreatment 4 hr, read-out: Percent Inhibition
  inhibition in vivo at 0.3 mg/kg: 28%
Male Sprague Dawley rats [1]; 4 h, 1 mg/kg p.o., HPbCD, pretreatment 4 hr, read-out: Percent Inhibition
  inhibition in vivo at 1 mg/kg: 32%
Male Sprague Dawley rats [1]; [4]
  inhibition in vivo at 3 mg/kg: 23%
  inhibition in vivo at 10 mg/kg: 71%
Male Sprague Dawley rats [1]; 4 h, 5.6 mg/kg p.o., HPbCD, pretreatment 4 hr, read-out: Percent Inhibition
  inhibition in vivo at 5.6 mg/kg: 72%
Male Sprague Dawley rats [1]; [5]
  inhibition in vivo at 10 mg/kg: 76%
  inhibition in vivo at 17.8 mg/kg: 64%
  inhibition in vivo at 30 mg/kg: 72%
  inhibition in vivo at 56 mg/kg: 68%
Male Sprague Dawley rats [1]; HPbCD, pretreatment 4 hr
  ED50: 3.5 mg/kg
Male Sprague Dawley rats [2]; 2 h, 120 min pre-icilin
  ED50: 2.5 mg/kg
Sprague-Dawley rats; dose 1 p.o., treatment time 60 min
  Percent Reversal: 9%
Sprague-Dawley rats; dose 3 p.o., treatment time 60 min
  Percent Reversal: −10%
Sprague-Dawley rats; dose 5.6 p.o., treatment time 60 min
  Percent Reversal: 10%
Sprague-Dawley rats; dose 30 p.o., treatment time 60 min
  Percent Reversal: 30%
Rat TRPM8; Cryopreserved cells
  IC50: 1.8 nM
